#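 Interpolation was linear, between the two tested concentrations surrounding the appropriate level; five concentrations were tested over 48 hours in 96-well plates. Here, GI50 denotes the concentration required for 50% inhibition of growth. TGI marks complete inhibition of growth.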
# Key:
# Assay in all cases: inhibition of tumour cell growth, NCI panel, 48 h
# [1] = test system: HCT-116 colon
# [2] = test system: HT29 colon
# [3] = test system: HCT-15 colon
# [4] = test system: NCI-H23 lung
# [5] = test system: CCRF-CEM leukemia
# [6] = test system: MDA-MB-231 breast
# [7] = test system: M14 melanoma
# [8] = test system: OVCAR-5 ovarian
# [9] = test system: SK-MEL-28 melanoma
# [10] = test system: RPMI-8226 leukemia
# [11] = test system: OVCAR-3 ovarian
# [12] = test system: SW-620 colon
# [13] = test system: OVCAR-4 ovarian
# [14] = test system: UACC-62 melanoma
# [15] = test system: SK-MEL-2 melanoma
# [16] = test system: SNB-75 CNS
# [17] = test system: HOP-92 NSCLC
# [18] = test system: RXF 393 renal
# [19] = test system: MCF7 breast
# [20] = test system: SK-MEL-5 melanoma
# [21] = test system: HL-60(TB) leukemia
# [22] = test system: SF-295 CNS
# [23] = test system: EKVX NSCLC
# [24] = test system: TK-10 renal
# [25] = test system: NCI-H522 lung
# [26] = test system: OVCAR-8 ovarian
# [27] = test system: DU-145 prostate
# [28] = test system: HS 578T breast
# [29] = test system: MALME-3M melanoma
# [30] = test system: MDA-MB-435
# [31] = test system: K-562 leukemia
# [32] = test system: HOP-62 NSCLC
# [33] = test system: MDA-MB-468 breast
# [34] = test system: SF-539 CNS
# [35] = test system: KM12 colon
# [36] = test system: PC-3 prostate
# [37] = test system: HCC-2998 colon
# [38] = test system: SNB-19 CNS
# [39] = test system: SF-268 CNS
# [40] = test system: T-47D breast
# [41] = test system: SK-OV-3 ovarian
# [42] = test system: SN12C renal
compound,measurement,setting,value
CN(CCSSCCN1CCOCC1)C(=O)Oc1cc2c(c3ccccc13)[C@H](CCl)CN2C(=O)c1cc2cc(OCCCN3CCC3)ccc2[nH]1,GI50,[1],45.2 nM
same,TGI,[1],5040 nM
same,GI50,[2],69.9 nM
same,TGI,[2],25000 nM
same,GI50,[3],57.4 nM
same,TGI,[3],642 nM
same,GI50,[4],10.1 nM
same,TGI,[4],43.3 nM
same,GI50,[5],102 nM
same,TGI,[5],9890 nM
same,GI50,[6],71.1 nM
same,TGI,[6],178 nM
same,GI50,[7],10.1 nM
same,TGI,[7],42.6 nM
same,GI50,[8],67.5 nM
same,TGI,[8],266 nM
same,GI50,[9],29.1 nM
same,TGI,[9],66.7 nM
same,GI50,[10],473 nM
same,TGI,[10],5180 nM
same,GI50,[11],236 nM
same,TGI,[11],2380 nM
same,GI50,[12],46.4 nM
same,TGI,[12],2700 nM
same,GI50,[13],615 nM
same,TGI,[13],2280 nM
same,GI50,[14],6.25 nM
same,TGI,[14],32.1 nM
same,GI50,[15],49.4 nM
same,TGI,[15],95.9 nM
same,GI50,[16],38 nM
same,TGI,[16],173 nM
same,GI50,[17],382 nM
same,TGI,[17],1440 nM
same,GI50,[18],40.6 nM
same,TGI,[18],82.9 nM
same,GI50,[19],7.52 nM
same,TGI,[19],2640 nM
same,GI50,[20],6.32 nM
same,TGI,[20],32.1 nM
same,GI50,[21],131 nM
same,TGI,[21],1400 nM
same,GI50,[22],3.04 nM
same,TGI,[22],10.8 nM
same,GI50,[23],42 nM
same,TGI,[23],134 nM
same,GI50,[24],971 nM
same,TGI,[24],5810 nM
same,GI50,[25],273 nM
same,TGI,[25],1020 nM
same,GI50,[26],24.7 nM
same,TGI,[26],136 nM
same,GI50,[27],11.9 nM
same,TGI,[27],2980 nM
same,GI50,[28],178 nM
same,TGI,[28],1100 nM
same,GI50,[29],48.1 nM
same,TGI,[29],123 nM
same,GI50,[30],36.7 nM
same,TGI,[30],104 nM
same,GI50,[31],75.1 nM
same,TGI,[31],2670 nM
same,GI50,[32],2.51 nM
same,TGI,[32],28.8 nM
same,GI50,[33],40.2 nM
same,TGI,[33],173 nM
same,GI50,[34],51.3 nM
same,TGI,[34],123 nM
same,GI50,[35],30.6 nM
same,TGI,[35],5430 nM
same,GI50,[36],39.6 nM
same,TGI,[36],1770 nM
same,GI50,[37],27 nM
same,TGI,[37],102 nM
same,GI50,[38],6.65 nM
same,TGI,[38],127 nM
same,GI50,[39],24.4 nM
same,TGI,[39],849 nM
same,GI50,[40],287 nM
same,TGI,[40],1700 nM
same,GI50,[41],8.67 nM
same,TGI,[41],101 nM
same,GI50,[42],64.9 nM
same,TGI,[42],1440 nM

# Source: PubChem BioAssay (NCI)
